US20220048876A1, “INSECTICIDAL COMPOUNDS” (SYNGENTA PARTICIPATIONS AG, priority 2018, published 2022)
Read-outs that look alike come from different tables or passages of the source.

Tests used:
Format in all cases: in vivo
Myzus persicae = Myzus persicae (green peach aphid), intrinsic activity; conditions: 120 h
Source text: Myzus persicae (Green Peach Aphid). Intrinsic Activity
Test compounds prepared from 10′000 ppm DMSO stock solutions were applied by pipette into 24-well microtiter plates and mixed with sucrose solution. The plates were closed with a stretched Parafilm. A plastic stencil with 24 holes was placed onto the plate and infested pea seedlings were placed directly on the Parafilm. The infested plate was closed with a gel blotting paper and another plastic stencil and then turned upside down. The samples were assessed for mortality 5 days after infestation.

Tetranychus urticae = Tetranychus urticae (two-spotted spider mite), feeding/contact activity; conditions: 192 h
Procedure: Tetranychus urticae (Two-Spotted Spider Mite):Feeding/Contact Activity
Bean leaf discs on agar in 24-well microtiter plates were sprayed with aqueous test solutions prepared from 10′000 ppm DMSO stock solutions. After drying the leaf discs were infested with a mite population of mixed ages. The samples were assessed for mortality on mixed population (mobile stages) 8 days after infestation.

Euschistus heros = Euschistus heros (neotropical brown stink bug), sprayed soybean leaves; conditions: 120 h, read-out: effect in at least one of the two categories (mortality or growth inhibition); for percent effect (mortality or growth inhibition) at 200 ppm: application rate 200 ppm, N2 nymphs, 5 days after infestation
Procedure: Euschistus heros(Neotropical Brown Stink Bug)
Soybean leaves on agar in 24-well microtiter plates were sprayed with aqueous test solutions prepared from 10′000 ppm DMSO stock solutions. After drying the leaves were infested with N2 nymphs. The samples were assessed for mortality and growth inhibition in comparison to untreated samples 5 days after infestation.

Diabrotica balteata = Diabrotica balteata (corn root worm), sprayed maize sprouts; conditions: 96 h, read-out: effect in at least one of the two categories (mortality or growth inhibition); for percent effect (mortality or growth inhibition) at 200 ppm: application rate 200 ppm, L2 larvae, 4 days after infestation
Procedure: Diabrotica balteata (Corn Root Worm)
Maize sprouts placed onto an agar layer in 24-well microtiter plates were treated with aqueous test solutions prepared from 10′000 ppm DMSO stock solutions by spraying. After drying, the plates were infested with L2 larvae (6 to 10 per well). The samples were assessed for mortality and growth inhibition in comparison to untreated samples 4 days after infestation.

Thrips tabaci = Thrips tabaci (onion thrips), feeding/contact activity; conditions: 144 h
Procedure: Thrips tabaci (Onion Thrips) Feeding/Contact Activity
Sunflower leaf discs were placed on agar in 24-well microtiter plates and sprayed with aqueous test solutions prepared from 10′000 ppm DMSO stock solutions. After drying the leaf discs were infested with a thrips population of mixed ages. The samples were assessed for mortality 6 days after infestation.

Spodoptera littoralis = Spodoptera littoralis (Egyptian cotton leaf worm), cotton leaf discs; conditions: foliar, 72 h, read-out: control (mortality, anti-feedant effect or growth inhibition)
Procedure: Spodoptera littoralis (Egyptian Cotton Leaf Worm)
Cotton leaf discs were placed onto agar in 24-well microtiter plates and sprayed with aqueous test solutions prepared from 10′000 ppm DMSO stock solutions. After drying the leaf discs were infested with five L1 larvae. The samples were assessed for mortality, anti-feeding effect, and growth inhibition in comparison to untreated samples 3 days after infestation. Control of Spodoptera littoralis by a test sample is given when at least one of the categories mortality, anti-feedant effect, and growth inhibition is higher than the untreated sample.

Plutella xylostella = Plutella xylostella (diamond back moth), artificial diet; conditions: 120 h, read-out: effect in at least one of the two categories (mortality or growth inhibition); for percent effect (mortality or growth inhibition) at 200 ppm: application rate 200 ppm, L2 larvae, 5 days after infestation
Procedure: Plutella xylostella (Diamond Back Moth)
24-well microtiter plates with artificial diet were treated with aqueous test solutions prepared from 10′000 ppm DMSO stock solutions by pipetting. After drying, the plates were infested with L2 larvae (10 to 15 per well). The samples were assessed for mortality and growth inhibition in comparison to untreated samples 5 days after infestation.

[1] = test rate 12 ppm, 5 days after infestation, read-out: mortality
[2] = application rate 200 ppm, mixed population (mobile stages), 8 days after infestation, read-out: mortality
[3] = application rate 200 ppm, mixed ages, 6 days after infestation, read-out: mortality
[4] = application rate 200 ppm, L1 larvae, 3 days after infestation

Cc1cc(C2=NS[C@@](c3cc(Cl)cc(Cl)c3)(C(F)(F)F)C2)ccc1C(=O)NCC1(C#N)CC1 [Compound A1, N-[(1-cyanocyclopropyl)methy]-4-[(5S)-5-(3,5-dichlorophenyl)-5-(trifluoromethyl)-4H-isothiazol-3-yl]-2-methyl-benzamide]
≥ 80%: mortality at 12 ppm (Myzus persicae; [1]) | mortality at 200 ppm (Tetranychus urticae; [2]) | percent effect (mortality or growth inhibition) at 200 ppm (Euschistus heros) | percent effect (mortality or growth inhibition) at 200 ppm (Diabrotica balteata) | mortality at 200 ppm (Thrips tabaci; [3]) | percent control (mortality, anti-feedant effect or growth inhibition) at 200 ppm (Spodoptera littoralis; [4]) | percent effect (mortality or growth inhibition) at 200 ppm (Plutella xylostella)

Cc1cc(C2=COC(c3cc(Cl)cc(Cl)c3)(C(F)(F)F)C2)ccc1C(=O)NCC1(C#N)CC1 (centres unmarked) [Compound A2, N-[(1-cyanocyclopropyl)methyl]-4-[2-(3,5-dichlorophenyl)-2-(trifluoromethyl)-3H-furan-4-yl]-2-methyl-benzamide]
≥ 80%: mortality at 12 ppm (Myzus persicae; [1]) | mortality at 200 ppm (Tetranychus urticae; [2]) | percent effect (mortality or growth inhibition) at 200 ppm (Euschistus heros) | percent effect (mortality or growth inhibition) at 200 ppm (Diabrotica balteata) | mortality at 200 ppm (Thrips tabaci; [3]) | percent control (mortality, anti-feedant effect or growth inhibition) at 200 ppm (Spodoptera littoralis; [4]) | percent effect (mortality or growth inhibition) at 200 ppm (Plutella xylostella)

Cc1cc(C2=NO[C@](c3cc(Cl)cc(Cl)c3)(C(F)(F)F)[C@H]2Cl)ccc1C(=O)NCC1(C#N)CC1 [Compound A3, 4-[(4S,5R)-4-chloro-5-(3,5-dichlorophenyl)-5-(trifluoromethyl)-4H-isoxazol-3-yl]-N-[(1-cyanocyclopropyl)methyl]-2-methyl-benzamide]
≥ 80%: mortality at 12 ppm (Myzus persicae) | mortality at 200 ppm (Tetranychus urticae) | percent control (mortality or growth inhibition) at 200 ppm (Euschistus heros) | percent control (mortality or growth inhibition) at 200 ppm (Diabrotica balteata) | mortality at 200 ppm (Thrips tabaci) | percent control (mortality, anti-feedant effect or growth inhibition) at 200 ppm (Spodoptera littoralis) | percent control (mortality or growth inhibition) at 200 ppm (Plutella xylostella)

Cc1cc(C2=NCC(c3cc(Cl)c(F)c(Cl)c3)(C(F)(F)F)C2)ccc1C(=O)NCC1(C#N)CC1 (centres unmarked) [Compound A4, N-[(1-cyanocyclopropyl)methyl]-4-[3-(3,5-dichloro-4-fluorophenyl)-3-(trifluoromethyl)-2,4-dihydropyrrol-5-yl]-2-methyl-benzamide]
≥ 80%: mortality at 12 ppm (Myzus persicae; [1]) | mortality at 200 ppm (Tetranychus urticae; [2]) | percent effect (mortality or growth inhibition) at 200 ppm (Euschistus heros) | percent effect (mortality or growth inhibition) at 200 ppm (Diabrotica balteata) | mortality at 200 ppm (Thrips tabaci; [3]) | percent control (mortality, anti-feedant effect or growth inhibition) at 200 ppm (Spodoptera littoralis; [4]) | percent effect (mortality or growth inhibition) at 200 ppm (Plutella xylostella)

Cc1cc(C2=NCC(c3cc(Cl)c(Cl)c(Cl)c3)(C(F)(F)F)C2)ccc1C(=O)NCC1(C#N)CC1 (centres unmarked) [Compound A5, N-[(1-cyanocyclopropyl)methyl]-2-methyl-4-[3-(3,4,5-trichlorophenyl)-3-(trifluoromethyl)-2,4-dihydropyrrol-5-yl]benzamide]
≥ 80%: mortality at 12 ppm (Myzus persicae; [1]) | mortality at 200 ppm (Tetranychus urticae; [2]) | percent effect (mortality or growth inhibition) at 200 ppm (Euschistus heros) | percent effect (mortality or growth inhibition) at 200 ppm (Diabrotica balteata) | mortality at 200 ppm (Thrips tabaci; [3]) | percent control (mortality, anti-feedant effect or growth inhibition) at 200 ppm (Spodoptera littoralis; [4]) | percent effect (mortality or growth inhibition) at 200 ppm (Plutella xylostella)
